Numbers after ± are expanded uncertainties.
Test: mn = molality of the nth substance listed, in mol/kg
Conditions: 101 kPa, Liquid

With `CCCCCC(=O)[O-].[Na+]` [sodium hexanoate] + O the mass density (298.15 K, m1 = 0.5) was 1014.4 ± 0.87 kg/m3, the viscosity (298.15 K, m1 = 0.5) was 1.212 ± 0.027 mPa·s and the mass density (298.15 K, m1 = 1) was 1029.41 ± 1 kg/m3. It also gave a viscosity (298.15 K, m1 = 1) of 1.607 ± 0.035 mPa·s, a mass density (298.15 K, m1 = 1.5) of 1041.88 ± 1.2 kg/m3 and a viscosity (298.15 K, m1 = 1.5) of 2.102 ± 0.045 mPa·s. It also gave a mass density (298.15 K, m1 = 2.177) of 1054.22 ± 1.3 kg/m3, a viscosity (298.15 K, m1 = 2.177) of 3.187 ± 0.068 mPa·s and a mass density (308.15 K, m1 = 0.5) of 1010.74 ± 0.85 kg/m3. For the same compound, the viscosity (308.15 K, m1 = 0.5) was 0.956 ± 0.021 mPa·s, the mass density (308.15 K, m1 = 1) was 1024.96 ± 1 kg/m3 and the viscosity (308.15 K, m1 = 1) was 1.24 ± 0.027 mPa·s. The mass density (308.15 K, m1 = 1.5) was 1036.7 ± 1.1 kg/m3, the viscosity (308.15 K, m1 = 1.5) was 1.601 ± 0.035 mPa·s and the mass density (308.15 K, m1 = 2.177) was 1048.72 ± 1.3 kg/m3. For the same compound, the viscosity (308.15 K, m1 = 2.177) was 2.402 ± 0.052 mPa·s.
